According to PubChem BioAssay AID330 (DTP/NCI, 2004):
Several values for one entry are separate records, joined by “and”; a condition that tells them apart may be missing. Equal entries are not always repeated. Inconclusive results and toxic doses are left out. Square brackets hold non-standard residues; d marks the D form. Peptide text beside a SMILES is read from it. ξ: configuration not given here. ξPhe(4-N(CH2CH2Cl)2) = NC(Cc1ccc(N(CCCl)CCCl)cc1)C(=O)O

System: P388 leukemia ip, CD2F1 mice, survival T/C
Assay: NCI In Vivo Anticancer Drug Screen. Data for tumor model P388 Leukemia (intraperitoneal) in CD2F1 (CDF1) mice
Settings: endpoint: median survival time, higher = longer survival
Procedure, shortened: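 Mice carrying the transplanted tumor received test compound or vehicle. Survival was recorded in each group, and the value is the treated-group measurement divided by that of the vehicle-treated control group.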

[1] = dose: 50.0 mg/kg/injection, schedule: Q01DX009 (ip), vehicle: saline with Tween-80
[2] = dose: 100.0 mg/kg/injection, schedule: Q01DX009 (ip), vehicle: saline with Tween-80
[3] = dose: 60.0 mg/kg/injection, schedule: Q01DX005 (ip), vehicle: Klucel (hydroxypropylcellulose) (HPC)
[4] = dose: 120.0 mg/kg/injection, schedule: Q01DX005 (ip), vehicle: Klucel (hydroxypropylcellulose) (HPC)
[5] = dose: 240.0 mg/kg/injection, schedule: Q01DX005 (ip), vehicle: Klucel (hydroxypropylcellulose) (HPC)
[6] = dose: 50.0 mg/kg/injection, schedule: Q01DX005 (ip), vehicle: Klucel (hydroxypropylcellulose) (HPC)
[7] = dose: 100.0 mg/kg/injection, schedule: Q01DX005 (ip), vehicle: Klucel (hydroxypropylcellulose) (HPC)
[8] = dose: 200.0 mg/kg/injection, schedule: Q01DX005 (ip), vehicle: Klucel (hydroxypropylcellulose) (HPC)
[9] = dose: 50.0 mg/kg/injection, schedule: Q01DX005 (ip), vehicle: saline with Tween-80
[10] = dose: 100.0 mg/kg/injection, schedule: Q04DX003 (ip), vehicle: saline with Tween-80
[11] = dose: 200.0 mg/kg/injection, schedule: Q01DX009 (ip), vehicle: saline with Tween-80
[12] = dose: 200.0 mg/kg/injection, schedule: Q04DX003 (ip), vehicle: saline with Tween-80
[13] = dose: 400.0 mg/kg/injection, schedule: Q04DX003 (ip), vehicle: saline with Tween-80

SMILES: N#Cc1c(N)nc2c(c1N)CC(CO)O2 (stereo not given)
- T/C [1]: 96 % of control
- T/C [2]: 93 % of control

SMILES: CC(=O)N(O)CC(=O)OCc1ccccc1
- T/C (dose: 12.5 mg/kg/injection, schedule: Q01DX009 (ip), vehicle: other): 96 % of control
- T/C (dose: 25.0 mg/kg/injection, schedule: Q01DX009 (ip), vehicle: other): 104 % of control
- T/C (dose: 50.0 mg/kg/injection, schedule: Q01DX009 (ip), vehicle: other): 102 % of control
- T/C (dose: 100.0 mg/kg/injection, schedule: Q01DX009 (ip), vehicle: other): 111 % of control
- T/C (dose: 200.0 mg/kg/injection, schedule: Q01DX009 (ip), vehicle: other): 100 % of control

SMILES: CCOC(=O)C(Cc1ccc(N(CCCl)CCCl)cc1)NC(=O)C(CCC(=O)O)NC(=O)C(CO)NC(=O)C(CCC(=O)O)NC(=O)C(N)CO (stereo not given) (H-SESE[ξPhe(4-N(CH2CH2Cl)2)]-OEt; configuration not given here)
- T/C (dose: 5.0 mg/kg/injection, schedule: Q04DX003 (ip), vehicle: water): 95 % of control
- T/C (dose: 10.0 mg/kg/injection, schedule: Q04DX003 (ip), vehicle: water): 106 % of control
- T/C (dose: 20.0 mg/kg/injection, schedule: Q04DX003 (ip), vehicle: water): 94 % of control
- T/C (dose: 40.0 mg/kg/injection, schedule: Q04DX003 (ip), vehicle: water): 105 % of control and 119 % of control

SMILES: O/C(=C(\c1ccccc1)n1ncc2c1OCCC2)c1ccccc1
- T/C (dose: 50.0 mg/kg/injection, schedule: Q01DX001 (ip), vehicle: Klucel (hydroxypropylcellulose) (HPC)): 94 % of control
- T/C (dose: 100.0 mg/kg/injection, schedule: Q01DX001 (ip), vehicle: Klucel (hydroxypropylcellulose) (HPC)): 95 % of control

SMILES: C=CC(C)(C)C12CC3C(=O)N/C(=C\c4cnc[nH]4)C(=O)N3C1Nc1ccccc12 (stereo not given)
- T/C (dose: 6.25 mg/kg/injection, schedule: Q01DX009 (ip), vehicle: Klucel (hydroxypropylcellulose) (HPC)): 118 % of control and 97 % of control
- T/C (dose: 6.25 mg/kg/injection, schedule: Q01DX009 (ip), vehicle: saline with Tween-80): 86 % of control
- T/C (dose: 12.5 mg/kg/injection, schedule: Q01DX009 (ip), vehicle: Klucel (hydroxypropylcellulose) (HPC)): 116 % of control and 95 % of control
- T/C (dose: 25.0 mg/kg/injection, schedule: Q01DX009 (ip), vehicle: Klucel (hydroxypropylcellulose) (HPC)): 98 % of control and 106 % of control
- T/C (dose: 25.0 mg/kg/injection, schedule: Q01DX009 (ip), vehicle: saline with Tween-80): 92 % of control
- T/C (dose: 50.0 mg/kg/injection, schedule: Q01DX009 (ip), vehicle: Klucel (hydroxypropylcellulose) (HPC)): 106 % of control and 109 % of control
- T/C [1]: 100 % of control

SMILES: O=C(O)/C=C/c1c2ccc(=O)cc-2oc2cc(O)ccc12
- T/C [3]: 103 % of control
- T/C [4]: 103 % of control
- T/C [5]: 91 % of control

SMILES: CCc1c2oc(C(=O)c3ccc(Cl)cc3)cc2n2ccccc12
- T/C (dose: 60.0 mg/kg/injection, schedule: Q01DX005 (ip), vehicle: Klucel + Tween-80): 89 % of control
- T/C (dose: 120.0 mg/kg/injection, schedule: Q01DX005 (ip), vehicle: Klucel + Tween-80): 86 % of control

SMILES: [N-]=[N+]=CC(=O)C1(c2ccccc2)OC1c1ccc([N+](=O)[O-])cc1 (stereo not given)
- T/C (dose: 12.5 mg/kg/injection, schedule: Q01DX001 (ip), vehicle: saline with Tween-80): 94 % of control
- T/C (dose: 25.0 mg/kg/injection, schedule: Q01DX001 (ip), vehicle: saline with Tween-80): 93 % of control
- T/C (dose: 50.0 mg/kg/injection, schedule: Q01DX001 (ip), vehicle: saline with Tween-80): 86 % of control and 95 % of control

SMILES: NSC(=S)NCc1ccco1
- T/C [6]: 106 % of control and 107 % of control
- T/C [7]: 101 % of control and 115 % of control
- T/C [8]: 115 % of control and 119 % of control

SMILES: O=c1cc[nH]c(=O)o1
- T/C (dose: 6.25 mg/kg/injection, schedule: Q01DX009 (ip), vehicle: water): 108 % of control
- T/C (dose: 12.5 mg/kg/injection, schedule: Q01DX009 (ip), vehicle: water): 119 % of control
- T/C (dose: 25.0 mg/kg/injection, schedule: Q01DX009 (ip), vehicle: water): 124 % of control
- T/C (dose: 50.0 mg/kg/injection, schedule: Q01DX009 (ip), vehicle: water): 121 % of control

SMILES: c1ccc(-n2cncn2)cc1
- T/C (dose: 60.0 mg/kg/injection, schedule: Q01DX005 (ip), vehicle: saline): 95 % of control
- T/C (dose: 120.0 mg/kg/injection, schedule: Q01DX005 (ip), vehicle: saline): 100 % of control
- T/C (dose: 240.0 mg/kg/injection, schedule: Q01DX005 (ip), vehicle: saline): 101 % of control

SMILES: CCCCCCOCCOCCCN1C(=O)C2C3C=CC(C3)C2(Cl)C1=O (stereo not given)
- T/C (dose: 50.0 mg/kg/injection, schedule: Q01DX005 (ip), vehicle: distilled water + Tween-80 + alcohol): 102 % of control
- T/C (dose: 100.0 mg/kg/injection, schedule: Q01DX005 (ip), vehicle: distilled water + Tween-80 + alcohol): 105 % of control
- T/C (dose: 200.0 mg/kg/injection, schedule: Q01DX005 (ip), vehicle: distilled water + Tween-80 + alcohol): 100 % of control

SMILES: CC(C)NC(=O)OCc1c(COC(=O)NC(C)C)c(-c2ccc(Cl)c(Cl)c2)n2c1CS(=O)(=O)C2
- T/C (dose: 6.25 mg/kg/injection, schedule: Q01DX005 (ip), vehicle: saline with Tween-80): 101 % of control
- T/C (dose: 12.5 mg/kg/injection, schedule: Q01DX005 (ip), vehicle: saline with Tween-80): 100 % of control and 87 % of control
- T/C [9]: 86 % of control

SMILES: CCCC(=O)Nc1ccc(C2=NNC(=O)C3CC23)cc1 (stereo not given)
- T/C (dose: 50.0 mg/kg/injection, schedule: Q01DX005 (ip), vehicle: saline + Tween-80 + alcohol): 99 % of control
- T/C (dose: 100.0 mg/kg/injection, schedule: Q01DX005 (ip), vehicle: saline + Tween-80 + alcohol): 99 % of control
- T/C (dose: 200.0 mg/kg/injection, schedule: Q01DX005 (ip), vehicle: saline + Tween-80 + alcohol): 97 % of control

SMILES: NS(=O)(=O)Oc1ccc(Cl)cc1C(=O)Oc1ccc(Cl)cc1
- T/C [3]: 91 % of control
- T/C [4]: 91 % of control
- T/C [5]: 88 % of control

SMILES: CC(=O)Oc1ccc[nH]c1=O
- T/C [2]: 104 % of control
- T/C [10]: 113 % of control
- T/C [11]: 118 % of control
- T/C [12]: 104 % of control
- T/C (dose: 300.0 mg/kg/injection, schedule: Q01DX009 (ip), vehicle: saline): 155 % of control
- T/C (dose: 400.0 mg/kg/injection, schedule: Q01DX009 (ip), vehicle: saline): 158 % of control
- T/C [13]: 109 % of control
- T/C (dose: 500.0 mg/kg/injection, schedule: Q01DX009 (ip), vehicle: saline): 87 % of control and 91 % of control
- T/C (dose: 600.0 mg/kg/injection, schedule: Q01DX009 (ip), vehicle: saline sonified): 115 % of control
- T/C (dose: 600.0 mg/kg/injection, schedule: Q01DX009 (ip), vehicle: saline with Tween-80): 172 % of control
- T/C (dose: 600.0 mg/kg/injection, schedule: Q01DX009 (ip), vehicle: saline): 110 % of control

SMILES: CC(=O)OC1C2C(OC3OC(=O)/C(=C\C=C4\CCCC(C)(C)C4)C32)O[C@H]1OC(C)=O (stereo not given in full)
- T/C (dose: 6.25 mg/kg/injection, schedule: Q01DX005 (ip), vehicle: Klucel (hydroxypropylcellulose) (HPC)): 105 % of control
- T/C (dose: 12.5 mg/kg/injection, schedule: Q01DX005 (ip), vehicle: Klucel (hydroxypropylcellulose) (HPC)): 113 % of control
- T/C (dose: 25.0 mg/kg/injection, schedule: Q01DX005 (ip), vehicle: Klucel (hydroxypropylcellulose) (HPC)): 86 % of control

SMILES: O=CNC(CSSCC(NC=O)C(=O)O)C(=O)O (stereo not given)
- T/C [6]: 101 % of control
- T/C [7]: 101 % of control
- T/C [10]: 113 % of control
- T/C [8]: 95 % of control
- T/C [12]: 90 % of control
- T/C [13]: 90 % of control

SMILES: Cc1cccc(C)c1NC(=O)C(Cl)(Cl)Sc1ccc(Cl)cc1Cl
- T/C [1]: 100 % of control
- T/C [2]: 104 % of control
- T/C [11]: 109 % of control

SMILES: COc1cc(N=Nc2ccccc2)cc(/C=N\NC(=S)Nc2ccccc2)c1O
- T/C [9]: 91 % of control
- T/C (dose: 100.0 mg/kg/injection, schedule: Q01DX005 (ip), vehicle: saline with Tween-80): 94 % of control
